Test results from publication PMC7385626 (Scientific Reports, 2020).

Tests used:
[1] = tested on: St. pyogenez ATCC176; experiment: Disc diffusion assay; format: cell-based, Steptococcus Pyogerez
Procedure: (§1) Therefore, the pathogen bacterial flora and the opportunistic agents may be taken into consideration both in the management of cancer patients and in individual susceptibility to cancer. Indeed, dual acting factors with antimicrobial and antiproliferative potentials can result in improved therapeutic efficacy for cancer cell patients or reduced cancer predisposition. […]. In this study, 10 microbial cultures of this part, belonging to ten types of bacterial were used. The culture was grown in Mueller–Hinton Broth (Merck) for all the bacterial strains at 36 °C. Antimicrobial test was carried out by using disc-diffusion assay utilizing 100 µL of suspension with 10^8 CFU/mL of bacteria and 10^6 CFU/mL of yeast spread on Nutrient Agar and Potato Dextrose Agar, respectively. Also, the blank disc (Oxoid = 6 mm in diameter) was impregnated with 20 µL of each substance (105 µg/disc) and placed on the inoculated agar. Negative controls ([…]) were prepared using the same solvent (water) employed to dissolve each substance. […]. The inoculated plate was incubated at 36 °C for clinical bacterial strains. Antimicrobial activities were evaluated by obtaining the zone of inhibitory effect against the test organisms.

[2] = tested on: S. enteridis ATCC13076; experiment: Disc diffusion assay; format: cell-based, Salmonella Enteritidis
Procedure: as §1

[3] = tested on: S. aureus ATCC29213; experiment: Serial microdilution assay (MIC); format: cell-based, Staphylococcus aureus
Procedure: (§2) […]. […] Four types of gram-positive bacterial strains (St. pyogenez, B. subtilis, B. cereus, S. aureus) and five types of the gram-negative (S. enteridis, E. aerogenes, P. aeruginosa, E. coli, and S. gallinarum) were sensitive to 4 and 1. […]. The minimal inhibitory concentration value was studied for the microorganism cells, which evaluated to sensitive the substances and they tested in the disc-diffusion method. Inoculate of microorganism was prepared utilizing 12 h suspensions and broth cultures were adjusted to 0.5 McFarland turbidity standard. Each substance was dissolved in 10% dimethyl sulfoxide which diluted to the highest concentration (1000 µg/mL) for testing. […]. Also, prepared suspensions for standard microorganisms were added to each dilution in a 1:1 ratio. Growth act of microorganism cells was determined visually after incubation at 36 °C. The minimum concentration was no visible growth which was taken as the MIC.

[4] = tested on: B. subtilis ATCC6633; experiment: Serial microdilution assay (MIC); format: cell-based, Bacillus Subtilis
Procedure: as §2

[5] = tested on: B. cereus DSM 4312; experiment: Serial microdilution assay (MIC); format: cell-based, Bacillus Cereus
Procedure: as §2

[6] = tested on: St. pyogenez ATCC176; experiment: Serial microdilution assay (MIC); format: cell-based, Steptococcus Pyogerez
Procedure: as §2

[7] = tested on: E. coli 111; experiment: Serial microdilution assay (MIC); format: cell-based, Escherichia coli
Procedure: as §2

[8] = tested on: P. aeruginosa ATCC9027; experiment: Serial microdilution assay (MIC); format: cell-based, Pseudomonas Aureginosa
Procedure: as §2

[9] = tested on: E. aerogenes ATCC2924; experiment: Serial microdilution assay (MIC); format: cell-based, Enterobacter Aerogenes
Procedure: as §2

[10] = tested on: S. gallinarum; experiment: Serial microdilution assay (MIC); format: cell-based, Salmonella Gallinarum
Procedure: as §2

[11] = tested on: S. enteridis ATCC13076; experiment: Serial microdilution assay (MIC); format: cell-based, Salmonella Enteritidis
Procedure: as §2

[12] = tested on: bacterial strains (four gram-positive, five gram-negative); experiment: Disc diffusion assay, range over the bacterial strains; format: cell-based
Procedure: as §1, with “[…]. […] Four types of gram-positive bacterial strains (St. pyogenez, B. subtilis, B. cereus, S. aureus) and five types of” for “Therefore,”, “gram-negative (S. enteridis, E. aerogenes, P. aeruginosa, E. coli,” for “pathogen bacterial flora”, “S. gallinarum) were sensitive to 4” for “the opportunistic agents may be taken into consideration both in the management of cancer patients”, “1.” for “in individual susceptibility to cancer. Indeed, dual acting factors with antimicrobial and antiproliferative potentials can result in improved therapeutic efficacy for cancer cell patients or reduced cancer predisposition.”

[13] = tested on: bacterial strains (four gram-positive, five gram-negative); experiment: Serial microdilution assay (MIC), range over the bacterial strains; format: cell-based
Procedure: as §2

Substance	inhibition zones, St. pyogenez ATCC176 [1] [mm]	inhibition zones, S. enteridis ATCC13076 [2] [mm]	Minimum-inhibitory concentrations (MIC), S. aureus ATCC29213 [3] [µg/mL]	Minimum-inhibitory concentrations (MIC), B. subtilis ATCC6633 [4] [µg/mL]	Minimum-inhibitory concentrations (MIC), B. cereus DSM 4312 [5] [µg/mL]	Minimum-inhibitory concentrations (MIC), St. pyogenez ATCC176 [6] [µg/mL]	Minimum-inhibitory concentrations (MIC), E. coli 111 [7] [µg/mL]	Minimum-inhibitory concentrations (MIC), P. aeruginosa ATCC9027 [8] [µg/mL]	Minimum-inhibitory concentrations (MIC), E. aerogenes ATCC2924 [9] [µg/mL]	Minimum-inhibitory concentrations (MIC), S. gallinarum [10] [µg/mL]	Minimum-inhibitory concentrations (MIC), S. enteridis ATCC13076 [11] [µg/mL]	inhibition zones, range over the bacterial strains [12]	MIC, joint range for 4 and 1 over the strains [13] [µg/mL]	MIC, range over the bacterial strains [13] [µg/mL]
[Cu(N-bishydeten)Ag3(CN)5] [Complex 2]	32 ± 0.58	30 ± 0.58												
[Zn(N-bishydeten)Ag3(CN)5] [Complex 3]	29 ± 0.58	33 ± 0.58												
[Cd(N-bishydeten)]4[Ag(CN)2]8[Ag(CN)]2 [Complex 4]	26 ± 0.0	36 ± 1.0	62.50 ± 0.0	31.25 ± 0.0	62.50 ± 18.04	31.25 ± 9.02	31.25 ± 0.0	62.50 ± 0.0	125 ± 53.40	125 ± 0.0	62.50 ± 0.14	25–37 mm	15.62 to 125	31.25 to 125
